Results on 120 molecules are retold here after a melting point compilation (Tetko et al.).

For orientation: melting point means the temperature, or range, at which the solid turns liquid. Turning to `Nc1ccc(-c2cccc(C(F)(F)F)c2)cn1`, the melting point lay in the range of 101 to 103 °C.
For the molecule `O=C(O)c1ccc(CS)cc1`, the melting point was in the range of 179 to 181 °C.
Then `O=C(O)c1cc(S(=O)(=O)NCCCN2CCCC2=O)ccc1Cl`, with 98 to 100 °C.
Then `NNC(=S)Nc1cc(S(=O)(=O)N2CCOCC2)ccc1Cl`, with 181 to 183 °C; and `O=C(CCl)NC(=O)NCCC1=CCCCC1`, with 200 to 202 °C; and `COc1ccccc1-c1nnc(S)n1C`, with 177 to 179 °C.
The molecule `CC(C)(C)OC(=O)NCCCC(N)=S` showed a melting point of 94 to 96 °C.
Then `Cc1cc([N+](=O)[O-])n[nH]1`, with 153 to 155 °C; and `O=C(O)c1cc(Cl)nc2ccccc12`, with 187 to 189 °C; and `Cc1ccc(C(=O)Nc2cccc(C(F)(F)F)c2)cc1O`, with 169 to 171 °C.
Then `O=C(O)C1CCCCN1C(=O)c1ccc(Br)c(F)c1` (stereo not given), with 134 to 136 °C; and `O=C(NC(Cc1ccccc1)C(=O)O)c1cccnc1` (stereo not given), with 206 to 208 °C; and `NC(=NO)c1cc2ccccc2o1`, with 183 to 185 °C.
Then `O=C(CCl)N1CCc2ccccc21`, with 118 to 120 °C.
`O=S(=O)(Cl)c1ccc2ncccc2c1`: the melting point was in the range of 87 to 89 °C.
Then `CCn1c(Cl)nnc1-c1ccccc1Cl`, with 123 to 125 °C.
Turning to `CC(CC(=O)O)c1ccncc1` (stereo not given), the melting point fell in the range of 171 to 173 °C.
Then `CC(=O)c1nnn(-c2ccccc2)c1C`, with 99 to 101 °C; and `c1ccc(NC2CCN(c3ccncc3)CC2)cc1`, with 145 to 147 °C.
Molecule `O=C1OCCc2cnc3ccnn3c21` returned a melting point of 213 to 215 °C.
Then `COc1ccc2oc(C=O)cc2c1`, with 59 to 61 °C; and `Nc1ccc(F)c(F)c1N`, with 114 to 117 °C; and `O=C(O)c1cnc(NC2CC2)s1`, with 217 to 219 °C.
Then `Cc1nn(-c2ccccc2)c(Cl)c1C(=O)O`, with 232 to 234 °C; and `Nc1nc(Cl)ncc1[N+](=O)[O-]`, with 209 to 211 °C; and `N#Cc1oc2ccccc2c1O`, with 138 to 140 °C.
Consider `N#CCOc1ccc(Cl)cc1CBr`, for which the melting point fell in the range of 85 to 87 °C.
`COc1cccc(C2(C)NC(=O)NC2=O)c1` (stereo not given) returned a melting point of 119 to 121 °C.
Then `NC(=O)Nc1cc(Cl)ccc1C(=O)O`, with 185 to 187 °C; and `CCN(CC)S(=O)(=O)c1ccc(CCC(=O)O)cc1`, with 150 to 152 °C.
Then `NC(=O)NC(Cc1c[nH]c2ccccc12)C(=O)O` (stereo not given), with 198 to 202 °C; and `NCCC(=O)Nc1ccccc1`, with 62 to 64 °C; and `O=C(O)C1CCCCC1C(=O)NC1CCS(=O)(=O)C1` (stereo not given), with 137 to 139 °C.
Then `CCCC(=O)Nc1nc2ccc(N)cc2s1`, with 182 to 184 °C; and `Nc1nonc1-c1ccc(Cl)c(Cl)c1`, with 143 to 145 °C.
`Nc1nnc(-c2cnn(-c3ccccc3)c2)o1` showed a melting point of 283 to 285 °C.
As to `COc1cc(C=NO)ccc1OC(F)F`, the melting point was in the range of 57 to 59 °C.
`CC1(c2ccc(C#N)cc2)NC(=O)NC1=O` (stereo not given) showed a melting point of 209 to 211 °C.
With `CC(=O)Nc1ccc(S(=O)(=O)Cl)cc1[N+](=O)[O-]`, the melting point was in the range of 89 to 91 °C.
For `CN(C)C(=O)c1cccc(Br)c1`, the melting point fell in the range of 52 to 54 °C.
Then `O=C(O)CCCc1nc2ccccc2c(=O)[nH]1`, with 269 to 271 °C; and `O=C(O)C1CCN(C(=O)c2ccco2)CC1`, with 127 to 129 °C.
Then `CCN(CC)CC(=O)Nc1ccc(C(F)(F)F)cc1N`, with 94 to 96 °C.
Then `Cc1nc(-c2ccc(C(C)N)cc2)cs1` (stereo not given), with 74 to 76 °C; and `FC(F)(F)c1ccccc1-c1nnc(CCl)o1`, with 35 to 37 °C; and `COC(=O)c1ccc2ccccc2n1`, with 83 to 85 °C.
Molecule `O=C(O)CCCCc1ccc(O)c(O)c1` returned a melting point of 93 to 95 °C.
`CCN(CC)C(=O)c1cccc(N)c1` registered a melting point of 81 to 83 °C.
Then `N#Cc1nnc2ccccc2c1Cl`, with 179 to 181 °C; and `O=C(CC(=O)Nc1ccccc1F)Nc1ccccc1F`, with 158 to 160 °C; and `CC(=O)NS(=O)(=O)Cl`, with 92 to 94 °C.
Then `CNCC(O)COc1ccccc1C(F)(F)F` (stereo not given), with 124 to 127 °C; and `CN(C)S(=O)(=O)c1cccc(NC(=O)CCl)c1`, with 74 to 78 °C; and `O=C(CCl)c1sccc1Br`, with 75 to 77 °C.
With `Cc1ccc(S(=O)(=O)NCC(=O)O)cc1C`, the melting point was 123 to 125 °C.
Then `O=C(O)c1cc([N+](=O)[O-])cn1Cc1sccc1Br`, with 190 to 192 °C; and `O=C(NCC1CCCC1)n1ccnc1`, with 61 to 63 °C.
For `C=CCN(CC=C)C(=O)c1ccc(N)cc1`, the melting point was 104 to 106 °C.
Then `COc1nc(O)c2ccccc2n1`, with 228 to 230 °C; and `Cc1nc2ccccc2c(N)c1C(C)C`, with 123 to 125 °C; and `Sc1nnc(-c2ccccc2)c(-c2ccccc2)n1`, with 222 to 224 °C.
Molecule `CCSc1ccc(C(=O)O)cc1` displayed a melting point of 145 to 147 °C.
Consider `COc1ccc(Br)cc1C(N)CO` (stereo not given), for which the melting point is 99 to 101 °C.
Then `O=C(O)c1ccc(Oc2ccc(F)c(F)c2)cc1`, with 156 to 158 °C; and `Cc1nc2scc(-c3ccccc3)c2c(=O)n1N`, with 134 to 136 °C.
On to `Cc1ccc(Oc2ccc3[nH]c(C)c(C)c(=O)c3c2)cc1`, for which the melting point was in the range of 284 to 286 °C.
Then `O=c1ccc(-n2cncn2)n[nH]1`, with 240 to 242 °C.
Then `Cc1ccc(-n2cnnn2)cc1N`, with 171 to 173 °C; and `OCC1CN(Cc2ccccc2)CC1CO` (stereo not given), with 94 to 96 °C.
Regarding `Nc1cc(C(F)(F)F)ccc1N1CC(C(F)(F)F)OC1=O` (stereo not given), the melting point lay within 99 to 101 °C.
Regarding `COc1ccc(C(=O)O)cc1-c1ccc(C(C)(C)C)cc1`, the melting point was 259 to 261 °C.
Then `CC(C)(CO)NCCO`, with 73 to 75 °C; and `COc1ccc(NS(=O)(=O)c2ccc(N3CCCC3)c(N)c2)cc1`, with 40 to 42 °C; and `O=C(O)c1ccc2c(c1)C(=O)N(CCc1ccccc1)C2=O`, with 215 to 217 °C.
In turn, `O=S(=O)(Cl)c1ccc2oc3ccccc3c2c1` registered a melting point of 134 to 136 °C.
Take `N#Cc1ccc(NN)cc1C(F)(F)F`: the melting point lay in the range of 119 to 121 °C.
`CC(C)(C(=O)O)c1ccccc1Cl` had a melting point of 111 to 113 °C.
Molecule `Cc1ccc(-n2nc(C)c(CC(=O)O)c2C)cc1Cl` registered a melting point of 146 to 148 °C.
`O=c1nc2ccccc2c(-c2ccccc2)[nH]1` had a melting point of 254 to 256 °C.
Then `Cc1c(C(=O)O)cnc2c1c(=O)n(C)c(=O)n2C`, with 279 to 281 °C.
Then `COc1ccccc1CNc1cccc2cnccc12`, with 118 to 120 °C.
Then `COc1ccc(C(=O)N(C)C)cc1N`, with 119 to 121 °C; and `Cc1nn(CCO)c(C(F)F)c1C(=O)O`, with 148 to 150 °C; and `COc1ccccc1-c1nn(Cc2ccccc2)cc1C(=O)O`, with 152 to 154 °C.
The molecule `COCCOc1ccc(Cl)cc1C#N` came in with a melting point of 64 to 66 °C.
Then `Nc1ccc(F)c(NC(=O)C2CC2)c1`, with 121 to 123 °C.
For `N#Cc1ccsc1NC(=O)CCl`, the melting point lay in the range of 160 to 170 °C.
Molecule `CC(C)NS(=O)(=O)c1ccc(NN)nc1` came in with a melting point of 141 to 143 °C.
Molecule `Cc1cccc(-c2[nH]ncc2C=O)c1` gave a melting point of 55 to 57 °C.
Then `COc1ccc(CCC2CCCCN2)cc1OC` (stereo not given), with 39 to 41 °C.
Then `O=C(O)C1CC1c1cccc2ccccc12` (stereo not given), with 116 to 118 °C; and `CC(=O)CC(=O)Nc1ccc(C)cc1Cl`, with 89 to 91 °C; and `O=C(O)c1cccc(OCC(F)(F)F)c1`, with 104 to 106 °C.
Then `Cc1nc2ccccn2c1I`, with 123 to 125 °C.
In turn, `O=C(CCl)NCc1ccc(F)cc1C(F)(F)F` yielded a melting point of 95 to 97 °C.
In the case of `O=C(O)c1occc1Br`, the melting point was 155 to 157 °C.
As for `O=C(O)C1(c2cccc(F)c2)CC1`, the melting point was 115 to 117 °C.
Then `Cc1nc2nccc(C(=O)O)n2n1`, with 226 to 228 °C; and `Nc1cc(Br)ccc1-n1cncn1`, with 114 to 116 °C.
Then `Cc1cc(F)c(S(N)(=O)=O)cc1F`, with 132 to 134 °C; and `CC(NC(=O)c1ccc(Br)o1)C(=O)O` (stereo not given), with 169 to 171 °C.
With `Cc1ccc(CNCc2ccc(C)n2C)n1C`, the melting point lay within 61 to 63 °C.
For the molecule `OC(CC1CCCCCN1)c1ccccc1` (stereo not given), the melting point lay in the range of 36 to 38 °C.
Regarding `CC1(C)CN(C(=O)OC(C)(C)C)c2ccccc2N1`, the melting point fell in the range of 92 to 94 °C.
Molecule `Cc1ccc(-c2csc(Cl)n2)cc1` gave a melting point of 93 to 95 °C.
Then `Cc1cc(C(=O)CCl)c(C)n1Cc1ccccc1`, with 64 to 68 °C; and `Cc1noc2nc(C(C)C)cc(C(=O)O)c12`, with 158 to 160 °C.
Then `COc1cc(C(=O)O)cc(OC)c1OC(F)F`, with 179 to 181 °C; and `CC(C)Oc1ccc(C(=O)NN)cc1`, with 117 to 119 °C.
Then `O=c1ccc2cc(S(=O)(=O)Cl)ccc2[nH]1`, with 278 to 280 °C.
`CC(C)n1ncc2ccc(N)cc21`: the melting point was in the range of 144 to 146 °C.
Consider `Cc1ccc(C(=O)N2CCOCC2)cc1N`, for which the melting point fell in the range of 153 to 155 °C.
Molecule `CC(Oc1cccc(F)c1)C(=O)O` (stereo not given) returned a melting point of 95 to 97 °C.
The molecule `Nc1nc2ccccn2n1` gave a melting point of 123 to 125 °C.
With `O=C(O)c1cc(-c2ccccc2)nc2onc(C3CC3)c12`, the melting point was 199 to 201 °C.
In turn, `CS(=O)(=O)c1cccnc1` registered a melting point of 54 to 56 °C.
Molecule `O=C(NO)c1ccc(Br)s1` showed a melting point of 152 to 160 °C.
For `NC(=O)C(N)c1ccc(Br)cc1` (stereo not given), the melting point lay within 119 to 121 °C.
Then `ClCc1nc(-c2cc(Br)cs2)no1`, with 56 to 58 °C.
Then `O=S(=O)(c1cccc(C(F)(F)F)c1)N1CCNCC1`, with 100 to 110 °C.
